Data as given in PMC12628291 (Inorganic Chemistry, 2025).
Like-named read-outs stand apart in the source and are kept apart here.

Tests used:
[1] = UV-vis absorption, emission spectra and luminescence quantum yield; type: physicochemical; details: for Φ (luminescence quantum yield): air-equilibrated; for λem: excitation 450 nm
Description: We studied the absorption and emission properties of the complexes in different solvents including MeCN, MeOH, and Tris-HCl aqueous buffer (0.05 M, pH 7.4). Due to solubility limitations, only complexes 1–4 were studied in Tris-HCl aqueous buffer. Indicatively, the comparative UV–vis absorption and emission spectra of complexes 4 and 7 in MeCN at 298 K are presented in Figure e.
The photophysical data are summarized in Tables and , and all measurements were conducted in air-equilibrated solvents.
(§1) ^1H, ^1H–^1H COSY, and ^13C NMR spectra were recorded on a 500 MHz NMR spectrometer (Agilent). Absorption spectra were acquired by using a JASCO V-750 spectrophotometer. For recording the emission spectra, we used an Edinburgh Instruments FS5 spectrofluorometer equipped with a red-sensitive Hamamatsu R13456 photomultiplier tube (PMT) and a 150 W xenon arc lamp as the light source. All spectra were corrected for detector response using the correction files and software (Fluoracle) provided by the manufacturer. The luminescence quantum yields of the complexes were calculated using the optically dilute method with an air-equilibrated aqueous solution of [Ru(bpy)3]-Cl2 (Φem = 0.049, λex = 436 nm) as the standard solution. , Emission lifetime measurements were performed using an Edinburgh Instruments mini-τ lifetime spectrometer with a bandpass filter (±40 nm bandpass) at 650 nm. The excitation source was an Edinburgh Instruments picosecond pulsed LED (EPLED-320) with a peak wavelength of 326.8 nm and a pulse width of 910 ps. The detector was a thermoelectrically cooled, high-speed, red-sensitive photomultiplier tube (Hamamatsu H10720-01). The data were analyzed by using the software provided by the manufacturer (Fluoracle). For emission lifetime calculations, the experiments were performed in triplicate, yielding similar results. The MS spectra were acquired using an LC20AD Shimadzu connected to Shimadzu LCMS-2010EV, with a flow rate of 0.4 mL/min MeOH or MeCN + 0.1% formic acid. LCMS analysis was carried out on an Agilent 1260 Infinity with a Raptor C18 column (50 mm × 2.1 mm, 2.7 μm particle size). A two-minute gradient from 5% to 95% MeCN in water was used, supplemented with 0.1% formic acid.

[2] = Emission lifetime (time-resolved luminescence decay); type: physicochemical
Description: Given the changes in the aggregation profiles of the complexes in cell culture medium containing FBS, as observed by DLS analysis, we also examined their emission lifetimes under these conditions (Table and Figure S52F–J). For this analysis, an 80 μM solution of each complex was utilized to achieve an improved signal-to-background ratio. […] However, the emission decay behavior of complexes 2–4 differs markedly from that of the estrogen-free control and from that of [Ru(bpy)3]^2+. In a cell culture medium with 10% FBS, the decay profile of complex 1 can be fitted to a biexponential model, comprising a short-lived component (355 ns, 6.6% contribution), consistent with the monomeric species, and a long-lived component (672 ns, 93.4% contribution) attributable to the aggregated form. […] Consistent with the behavior observed in Tris-HCl buffer, the addition of MeCN to a solution of complex 3 in FBS-containing medium led to aggregate disruption once the MeCN content reached 30%, as evidenced by a decrease in emission lifetime to 436 ns, signaling the dominance of the nonaggregated form (Figure f). Overall, our findings collectively confirm that aggregation correlates with the observed emission enhancement in aqueous solutions and that complexes 1–4 predominantly exist as self-assembled micelle-like aggregates in the cell culture medium used for our cellular studies. Nevertheless, it cannot be unequivocally determined from these experiments whether the complexes preserve their aggregated form in the intracellular environment.
as §1

[3] = DLS particle size distribution in Tris-HCl buffer; type: physicochemical; details: 20 μM
Description: Given the amphiphilic nature of the complexes, with the functionalized phenanthroline ligand serving as a lipophilic tail and the Ru(II) core serving as a hydrophilic headgroup, it was of interest to investigate the potential tendency of the complexes to form micelle-like aggregates in aqueous solutions. […] Our focus was to investigate the aggregation behavior in a purely aqueous environment, without the use of cosolvents such as DMSO. Since complexes 5–7 could not be solubilized under these conditions, they were not included in the DLS analysis.
The particle size distribution of the complexes was determined by dynamic light scattering (DLS) using a Particle Analyzer Litesizer 500 (Anton Paar, Austria) at 25 °C. 20 μM solutions of complexes 1–4 and of [Ru(bpy)3]-Cl2 in Tris-HCl buffer, as well as 20 μM solutions of complexes 1–4 in Gibco DMEM (Dulbecco’s Modified Eagle Medium with high glucose, L-glutamine, pyruvate, 10% FBS, and without phenol red), were analyzed by DLS. The experiments were performed in triplicate, yielding similar results.

[4] = in water; literature value, reference number not given; cited from earlier work
[5] = parameters: method as in doi:10.1021/ja00432a028; details: H2O; cited from earlier work
MCF-7 (ER+) cells [6] = experiment: MTS viability assay (dark and 457 nm light) in MCF-7; type: cell-based; details: for IC50: MCF-7, 457 nm for 12 min at 6 h, 24 h incubation, MTS; for SI = selectivity index, [IC50(ER‑)]light/[IC50(ER+)]light: MDA-MB-453 (ER-) vs MCF-7 (ER+)
Description: (§2) We determined the cytotoxicity of all the complexes using the well-established MTS assay against two breast cancer cell lines: MCF-7, which is ER+, and MDA-MB-453, which is ER-.
(§3) In this experiment, the cells were irradiated with blue light (457 nm) for 12 min.
(§4) MDA-MB-453 and MCF-7 cells were grown in high-glucose Dulbecco’s Modified Eagle Medium (DMEM) containing 10% fetal bovine serum at 37 °C with 5% CO2 in humidified air.
(§5) For viability experiments, cells were seeded at a density of 20,000 cells per well in Greiner-Bio black μClear plates. After 24 h, the corresponding ruthenium complexes were added at the appropriate concentrations (30 nM to 100 μM for complexes 1-4 and 30 nM to 20 μM for 5–7, < 1% DMSO) and allowed to incubate. For the phototoxicity experiments, the plate was removed at the six-hour time point and irradiated for 12 min using a Lumidox 457 nm 96-LED array set to 8 mA (2 mW/cm^2, a total of 1.2 J/s). After an overall 24 h incubation period, the media were replaced with fresh media containing an MTS/PMS mixture as per the Promega protocol (MTS: 3-(4,5-dimethylthiazol-2-yl)-5-(3-carboxymethoxyphenyl)-2-(4-sulfophenyl)-2H-tetrazolium; PMS: phenazine methosulfate). After an additional 4 h had passed, the absorbance at 490 nm (MTS) and 635 nm (background) was measured. Cell viability was calculated from the dose-response curve of the absorbance (MTS – background).

MDA-MB-453 (ER-) cells = experiment: MTS viability assay (dark and 457 nm light) in MDA-MB-453; type: cell-based; details: MDA-MB-453, 457 nm for 12 min at 6 h, 24 h incubation
Description: as §2, §3, §4, §5

[7] = test system: MCF-7 (ER+) and MDA-MB-453 (ER−) cells; experiment: Cellular uptake of ruthenium by ICP-MS; type: cell-based; details: 20 μM, 6 h, MCF-7 vs MDA-MB-453
Description: Thus, the cellular uptake of complexes 3 and 4 was evaluated and compared to the control complex 1 in ER+ (MCF-7) and ER– (MDA-MB-453) cell lines using inductively coupled plasma mass spectrometry (ICP-MS) (Figure b). […] This trend is consistent with its increased lipophilicity and the brighter red luminescence observed by microscopy for this complex. It is well established that lipophilicity can enhance membrane permeability and cellular internalization.
Cells were seeded at the appropriate density in 6-well plates (1 × 10^6 cells per well for MDA-MB-453 and 400,000 cells per well for MCF-7) and allowed to adhere for 24 h. Ruthenium complexes were added to the wells by direct dilution of a 10 mM DMSO stock solution to yield a final concentration of 20 μM in culture medium. After 6 h of incubation, the medium was removed, and the cells were washed three times with phosphate-buffered saline (PBS) to eliminate extracellular ruthenium. Cells were subsequently detached using trypsin, collected by centrifugation, and counted. […] The monitored isotope was 101Ru. A set of ruthenium calibration standards was used to establish and model the linear relationship between signal and concentration before the samples were injected, signal measured, and averaged across three consecutive signal acquisitions. The amount of metal detected in the cell samples was normalized to ppb per 1,000,000 cells.

MCF-7 (ER+) cells [8] = experiment: Luminescence microscopy of treated ER+ cells; type: cell-based; details: Figure S62, 6 h incubation
Description: 3 Microscopy imaging of cells incubated with complex 3 (20 μΜ) and complex 4 (10 μΜ) for 6 h: brightfield (left), photosensitizer luminescence (middle), and overlaid (right) images. (b) Cellular uptake by ICP-MS of complexes 1, 3, and 4 (20 μM, 6 h) in MCF-7 (ER+) and MDA-MB-453 (ER−) cells.
For imaging experiments, cells were seeded at a density of 20,000 cells per well in Greiner-Bio black μClear plates. After 24 h, the corresponding ruthenium complexes were added at the appropriate concentrations. After 6 h, the cells were washed 3 times with media, and the media were replaced with phenol-red-free media. Compounds were imaged on an Eclipse-Ti2 Widefield system (Nikon), equipped with a Prime 95B sCMOS camera (Teledyne), pE-400 LED light source (CoolLED), a 20× or 40× objective, and emission filters for green (515/30 nm), orange (600/50 nm), red (641/75 nm), and far-red (705/72 nm). The bright-field channel was used to autofocus each well, after which the complexes were excited using a 450 nm laser and the red emission channel collected.

[9] = Tris-HCl buffer (0.05 M, pH 7.4), 298 K
[10] = Tris-HCl buffer (0.05 M, pH 7.4)
[11] = cell culture medium (DMEM, 10% FBS, no phenol red), 80 μM
[12] = cell culture medium with 10% FBS, biexponential fit

Compound: [Cl][Ru][Cl].c1ccc(-c2ccccn2)nc1.c1ccc(-c2ccccn2)nc1.c1ccc(-c2ccccn2)nc1 [[Ru(bpy)3]Cl2, reference compound]
- Φ (luminescence quantum yield) ([1]; MeCN (298 K)): 1.6%
- λabs [1, 9]: 453 nm
- λem [1, 9]: 630 nm
- τ1 ([2]; MeCN): 156 ns
- τ1 ([2]; MeOH): 205 ns
- τ1 [2, 10]: 329 ns
- τ1 [2, 11]: 357 ns
- aggregate size (DLS, particle size distribution by intensity) [3]: no visible aggregates were observed
- 1O2 quantum yield (ΦΔ) [4]: 0.41
- Φ (luminescence quantum yield) [5]: 4.9^55%
- IC50 (MCF-7 (ER+) cells [6]): > 100 µM
- SI = selectivity index, [IC50(ER‑)]light/[IC50(ER+)]light (MCF-7 (ER+) cells [6]): NPD ^b
- IC50 (MDA-MB-453 (ER-) cells): > 100 µM

Compound: CCCCc1cn(-c2cc3cccnc3c3ncccc23)nn1.[Cl-].[Cl-].[Ru+2].c1ccc(-c2ccccn2)nc1.c1ccc(-c2ccccn2)nc1 [Complex 1, [Ru(bpy)2(L-1a)]Cl2]
- ε ([1]; MeCN (298 K)): 1.2 × 10^4 M^–1 cm^–1
- λabs ([1]; MeCN (298 K)): 450 nm
- Φ (luminescence quantum yield) ([1]; MeCN (298 K)): 2.1%
- λem ([1]; MeCN (298 K)): 625 nm
- ε [1, 9]: 1.1 × 10^4 M^–1 cm^–1
- λabs [1, 9]: 449 nm
- Φ (luminescence quantum yield) [1, 9]: 5.6%
- λem [1, 9]: 635 nm
- uptake in ER+ cells compared to ER– cells (ICP-MS) [7]: slightly higher accumulation in ER– cells than in ER+ cells
- τ1 ([2]; MeCN): 165 ns
- τ1 ([2]; MeOH): 225 ns
- τ1 [2, 10]: 599 ns
- contribution of τ1 (short-lived component) to the decay ([2]; Tris-HCl buffer, biexponential fit): less than 1%
- τ1 [2, 11]: 355 ns
- τ2 [2, 11]: 672 ns
- contribution of τ1 to the decay [2, 12]: 6.6%
- contribution of τ2 to the decay [2, 12]: 93.4%
- aggregate size (DLS, particle size distribution by intensity) [3]: around 100 nm
- intracellular luminescence, ER+ versus ER– cells (microscopy) (MCF-7 (ER+) cells [8]): no notable difference in luminescence between the two cell lines
- IC50 (MCF-7 (ER+) cells [6]): > 100 µM
- SI = selectivity index, [IC50(ER‑)]light/[IC50(ER+)]light (MCF-7 (ER+) cells [6]): NPD ^b
- IC50 (MDA-MB-453 (ER-) cells): > 100 µM
